These results are taken from PubChem BioAssay AID212 (DTP/NCI, 2004).

Where “and” joins values, the source holds several entries; their conditions need not be identical. Identical values can stand only once. Records with an inconclusive call do not appear.

In this test the test system is BDF1 mice, colon carcinoma 38 sc, T/C %. Put plainly: NCI In Vivo Anticancer Drug Screen. Data for tumor model Colon Carcinoma 38 (subcutaneous) in B6D2F1 (BDF1) mice. As to conditions: endpoint: median tumor weight (est.), higher = larger tumour. In short, it runs like this:
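Ratio of survival or tumor size, compound-treated animals relative to vehicle controls, in tumor-bearing mice.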

[1] abbreviates: dose: 6.25 mg/kg/injection, schedule: Q07DX002 (ip), vehicle: saline with Tween-80.
Setting [2] is: dose: 12.5 mg/kg/injection, schedule: Q07DX002 (ip), vehicle: saline with Tween-80.
[3] abbreviates: dose: 25.0 mg/kg/injection, schedule: Q07DX002 (ip), vehicle: saline with Tween-80.
[4] abbreviates: dose: 50.0 mg/kg/injection, schedule: Q07DX002 (ip), vehicle: saline with Tween-80.
Setting [5] is: dose: 100.0 mg/kg/injection, schedule: Q07DX002 (ip), vehicle: saline with Tween-80.
Setting [6] is: dose: 100.0 mg/kg/injection, schedule: Q07DX002 (ip), vehicle: saline.
Where [7] appears, read: dose: 200.0 mg/kg/injection, schedule: Q07DX002 (ip), vehicle: saline with Tween-80.
Setting [8] is: dose: 400.0 mg/kg/injection, schedule: Q07DX002 (ip), vehicle: saline with Tween-80.
Setting [9] is: dose: 800.0 mg/kg/injection, schedule: Q07DX002 (ip), vehicle: saline with Tween-80.
[10] abbreviates: dose: 12.5 mg/kg/injection, schedule: Q07DX003 (ip), vehicle: Klucel (hydroxypropylcellulose) (HPC).
Where [11] appears, read: dose: 25.0 mg/kg/injection, schedule: Q07DX003 (ip), vehicle: Klucel (hydroxypropylcellulose) (HPC).
Where [12] appears, read: dose: 50.0 mg/kg/injection, schedule: Q07DX003 (ip), vehicle: Klucel (hydroxypropylcellulose) (HPC).
Setting [13] is: dose: 12.5 mg/kg/injection, schedule: Q07DX002 (ip), vehicle: Klucel (hydroxypropylcellulose) (HPC).
Where [14] appears, read: dose: 25.0 mg/kg/injection, schedule: Q07DX002 (ip), vehicle: Klucel (hydroxypropylcellulose) (HPC).
Where [15] appears, read: dose: 50.0 mg/kg/injection, schedule: Q07DX002 (ip), vehicle: Klucel (hydroxypropylcellulose) (HPC).
Where [16] appears, read: dose: 400.0 mg/kg/injection, schedule: Q07DX002 (ip), vehicle: Klucel (hydroxypropylcellulose) (HPC).

Consider `CCOC1=Cc2c(oc3c(C(C)(C)C)cc(OCC)cc23)OC(C(C)(C)C)=C1`, for which the T/C reads like this: (dose: 0.78 mg/kg/injection, schedule: Q07DX002 (ip), vehicle: saline with Tween-80) 94 % of control; (dose: 1.56 mg/kg/injection, schedule: Q07DX002 (ip), vehicle: saline with Tween-80) 102 % of control; under setting [1], 83 % of control (2×) and 88 % of control; under setting [2], 64 % of control and 65 % of control; under setting [3], 55 % of control and 64 % of control; under setting [4], 51 % of control and 65 % of control. Further, the T/C under setting [5] was 72 % of control and 77 % of control.

As to `O=C(NO)c1ccc(O)c(O)c1`, the T/C is, setting by setting: (dose: 50.0 mg/kg/injection, schedule: Q07DX002 (ip), vehicle: water) 88 % of control; (dose: 100.0 mg/kg/injection, schedule: Q07DX002 (ip), vehicle: water) 92 % of control; (dose: 200.0 mg/kg/injection, schedule: Q07DX002 (ip), vehicle: water) 85 % of control; (dose: 400.0 mg/kg/injection, schedule: Q07DX002 (ip), vehicle: water) 48 % of control.

As to `NCCOCC(N)C(=O)O` (configuration not stated), the T/C is, setting by setting: (dose: 125.0 mg/kg/injection, schedule: Q07DX002 (ip), vehicle: saline) 112 % of control; (dose: 250.0 mg/kg/injection, schedule: Q07DX002 (ip), vehicle: saline) 84 % of control; (dose: 500.0 mg/kg/injection, schedule: Q07DX002 (ip), vehicle: saline) 107 % of control; (dose: 1000.0 mg/kg/injection, schedule: Q07DX002 (ip), vehicle: saline) 107 % of control.

On to `O/N=C/c1ccccc1O.O/N=C/c1ccccc1O.[Cu]`, for which the T/C reads like this: (dose: 3.12 mg/kg/injection, schedule: Q07DX002 (ip), vehicle: saline with Tween-80) 89 % of control and 100 % of control; under setting [1], 92 % of control and 100 % of control; under setting [2], 102 % of control and 108 % of control; under setting [3], 87 % of control and 104 % of control.

`O=[N+]([O-])c1nccn1CC(O)CO` (configuration not stated): the T/C runs as follows: under setting [6], 120 % of control; (dose: 800.0 mg/kg/injection, schedule: Q07DX002 (ip), vehicle: saline) 105 % of control.

For `N#CCCSC(=S)C1CCCC1=N` (configuration not stated), the T/C runs as follows: under setting [3], 107 % of control; under setting [4], 95 % of control; under setting [5], 90 % of control; under setting [7], 99 % of control; under setting [8], 71 % of control; under setting [9], 86 % of control.

Regarding `CCCCOCN(COCCCC)C(C)Cc1ccccc1` (configuration not stated), the T/C was 85 % of control and 106 % of control under setting [3]; 120 % of control and 99 % of control under setting [4].

In the case of `O=[N+]([O-])O.[Ga]`, the T/C reads like this: (dose: 12.5 mg/kg/injection, schedule: Q07DX003 (ip), vehicle: saline) 122 % of control; (dose: 25.0 mg/kg/injection, schedule: Q07DX002 (ip), vehicle: saline) 159 % of control; (dose: 25.0 mg/kg/injection, schedule: Q07DX003 (ip), vehicle: saline) 121 % of control; (dose: 50.0 mg/kg/injection, schedule: Q07DX002 (ip), vehicle: saline) 78 % of control; under setting [6], 81 % of control; (dose: 100.0 mg/kg/injection, schedule: Q07DX003 (ip), vehicle: saline) 44 % of control.

For the compound `Nc1ccc(Cn2ccc3c4c(N)nc(N)nc4ccc32)cc1`, the T/C reads like this: (dose: 1.25 mg/kg/injection, schedule: Q07DX002 (ip), vehicle: saline with Tween-80) 90 % of control; (dose: 2.5 mg/kg/injection, schedule: Q07DX002 (ip), vehicle: saline with Tween-80) 93 % of control and 106 % of control; (dose: 40.0 mg/kg/injection, schedule: Q07DX002 (ip), vehicle: saline with Tween-80) 59 % of control.

`N#Cc1c(N)[nH]c2ccc(Sc3ccccc3)cc12`: the T/C reads like this: under setting [2], 78 % of control; under setting [3], 97 % of control; under setting [4], 63 % of control; under setting [5], 73 % of control.

Consider `Nc1ncnc2c1ncn2C1C=C(CO)C(O)C1O` (configuration not stated), for which the T/C is 74 % of control and 84 % of control (dose: 1.0 mg/kg/injection, schedule: Q07DX002 (ip), vehicle: saline); 93 % of control (dose: 2.0 mg/kg/injection, schedule: Q07DX002 (ip), vehicle: saline); 107 % of control (dose: 8.0 mg/kg/injection, schedule: Q07DX002 (ip), vehicle: saline).

Regarding `CC/C(=C(/CC)c1ccc(O)cc1)c1ccc(O)cc1`, the T/C reads like this: (dose: 12.5 mg/kg/injection, schedule: Q07DX003 (ip), vehicle: saline with Tween-80) 96 % of control; (dose: 25.0 mg/kg/injection, schedule: Q07DX003 (ip), vehicle: saline with Tween-80) 153 % of control; (dose: 100.0 mg/kg/injection, schedule: Q07DX003 (ip), vehicle: saline with Tween-80) 76 % of control; (dose: 200.0 mg/kg/injection, schedule: Q07DX003 (ip), vehicle: saline with Tween-80) 179 % of control.

Take `COc1ccc(C2C(=O)c3ccc(OC)cc3OC2c2ccccc2)cc1` (configuration not stated): the T/C is, setting by setting: (dose: 25.0 mg/kg/injection, schedule: Q07DX002 (ip), vehicle: other) 84 % of control; (dose: 50.0 mg/kg/injection, schedule: Q07DX002 (ip), vehicle: other) 56 % of control; (dose: 100.0 mg/kg/injection, schedule: Q07DX002 (ip), vehicle: other) 47 % of control; (dose: 200.0 mg/kg/injection, schedule: Q07DX002 (ip), vehicle: other) 50 % of control; (dose: 400.0 mg/kg/injection, schedule: Q07DX002 (ip), vehicle: other) 61 % of control.

`CC(=O)OCc1cc(=O)n(C)c2c3c4c(cc12)c(C)cc(=O)n4CO3`: the T/C by setting is: under setting [10], 121 % of control and 106 % of control; under setting [11], 108 % of control; under setting [12], 83 % of control; (dose: 200.0 mg/kg/injection, schedule: Q07DX003 (ip), vehicle: Klucel (hydroxypropylcellulose) (HPC)) 94 % of control.

For the compound `COc1ccc(C(N)=O)cc1N=NN(C)C`, the T/C was 97 % of control (dose: 6.25 mg/kg/injection, schedule: Q07DX003 (ip), vehicle: Klucel (hydroxypropylcellulose) (HPC)); 111 % of control under setting [10]; 89 % of control under setting [11]; 66 % of control under setting [12]; 15 % of control (dose: 100.0 mg/kg/injection, schedule: Q07DX003 (ip), vehicle: Klucel (hydroxypropylcellulose) (HPC)).

On to `COc1cc(OC)c(OC)cc1/C=C\c1ccnc2ccccc12`, for which the T/C is, setting by setting: under setting [13], 93 % of control; under setting [14], 120 % of control; under setting [15], 160 % of control and 171 % of control; (dose: 100.0 mg/kg/injection, schedule: Q07DX002 (ip), vehicle: Klucel (hydroxypropylcellulose) (HPC)) 85 % of control and 97 % of control; under setting [16], 120 % of control.

For the compound `CC(Oc1ccccc1-c1ccccc1)C(=O)N(C)C` (configuration not stated), the T/C was 79 % of control and 82 % of control under setting [5]; 74 % of control and 78 % of control under setting [7]; 56 % of control and 75 % of control under setting [8]; 49 % of control and 68 % of control under setting [9].

For `OCC1OC(n2cnc3c(NO)ncnc32)C(O)C1O` (configuration not stated), the T/C under setting [13] is 88 % of control and 96 % of control; the T/C under setting [14] was 89 % of control and 91 % of control; the T/C under setting [15] is 121 % of control and 100 % of control; the T/C (dose: 200.0 mg/kg/injection, schedule: Q07DX002 (ip), vehicle: Klucel (hydroxypropylcellulose) (HPC)) is 118 % of control; the T/C under setting [16] is 96 % of control and 106 % of control.
